The values that follow come from article PMC12597212, “Biaryl Phosphate‐Based Inhibitors of the Transcription Factor STAT4” (Chemmedchem, 2025).

In general, IC50 refers to the concentration that gives 50% inhibition. Broadly, the Ki is a dissociation constant, usually derived from enzyme kinetics or from competition with a known ligand. The term inhibition denotes the relative decrease from the control value, in per cent.

SMILES strings stand for the structures.

Common to all, as to assay type: binding
The target of one experiment is T1, STAT1 (Homo sapiens, UniProt P42224).
T1 sequence (P42224 1-750): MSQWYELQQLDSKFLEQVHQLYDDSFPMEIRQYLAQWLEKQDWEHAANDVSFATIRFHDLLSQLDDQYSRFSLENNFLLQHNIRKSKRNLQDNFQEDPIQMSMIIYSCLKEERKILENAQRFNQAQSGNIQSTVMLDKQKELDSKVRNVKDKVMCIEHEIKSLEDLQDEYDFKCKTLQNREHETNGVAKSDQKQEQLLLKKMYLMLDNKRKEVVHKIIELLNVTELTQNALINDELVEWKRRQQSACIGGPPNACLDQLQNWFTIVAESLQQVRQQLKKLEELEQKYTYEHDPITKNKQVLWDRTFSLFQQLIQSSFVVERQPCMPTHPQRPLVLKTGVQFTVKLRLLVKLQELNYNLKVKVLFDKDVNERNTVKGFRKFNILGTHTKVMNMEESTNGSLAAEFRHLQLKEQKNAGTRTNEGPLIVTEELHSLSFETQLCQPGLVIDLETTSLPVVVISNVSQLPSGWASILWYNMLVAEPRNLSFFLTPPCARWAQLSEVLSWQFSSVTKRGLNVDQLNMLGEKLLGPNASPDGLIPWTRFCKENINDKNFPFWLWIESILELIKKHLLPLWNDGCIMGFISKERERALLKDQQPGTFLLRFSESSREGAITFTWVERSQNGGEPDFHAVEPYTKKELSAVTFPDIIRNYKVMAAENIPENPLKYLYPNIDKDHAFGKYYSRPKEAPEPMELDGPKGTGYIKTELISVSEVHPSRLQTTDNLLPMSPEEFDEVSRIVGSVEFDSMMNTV
Description: Competitive fluorescence polarization (FP) assay, STAT1. The note with it: for IC50: 80-92 nM STAT1, 10 nM tracer peptide; for Ki: Ki calculated from IC50, mean ± SD, n = 3. As for the experimental part:
(§1) Fluorescence polarization assays
(§2) STAT4; 5-carboxyfluorescein-GpYDKPHVL for STAT1; 5-carboxyfluorescein-GpYLPQTV- […]
(§3) fluorescent-labeled peptide was added. Samples were transferred to 384-well microtiter plates […]
(§4) Experiments were carried out in triplicate. Percent binding was calculated based on a logarithmic curve fit using OriginPro 8G software. Conversion of IC50 values to Ki-values was […]
(§5) Error bars represent standard deviations. […]
(§6) Experiments were carried out in triplicate. […]

In the next experiment the target is T2, STAT5b (Homo sapiens, UniProt P51692).
T2 sequence (P51692 1-787): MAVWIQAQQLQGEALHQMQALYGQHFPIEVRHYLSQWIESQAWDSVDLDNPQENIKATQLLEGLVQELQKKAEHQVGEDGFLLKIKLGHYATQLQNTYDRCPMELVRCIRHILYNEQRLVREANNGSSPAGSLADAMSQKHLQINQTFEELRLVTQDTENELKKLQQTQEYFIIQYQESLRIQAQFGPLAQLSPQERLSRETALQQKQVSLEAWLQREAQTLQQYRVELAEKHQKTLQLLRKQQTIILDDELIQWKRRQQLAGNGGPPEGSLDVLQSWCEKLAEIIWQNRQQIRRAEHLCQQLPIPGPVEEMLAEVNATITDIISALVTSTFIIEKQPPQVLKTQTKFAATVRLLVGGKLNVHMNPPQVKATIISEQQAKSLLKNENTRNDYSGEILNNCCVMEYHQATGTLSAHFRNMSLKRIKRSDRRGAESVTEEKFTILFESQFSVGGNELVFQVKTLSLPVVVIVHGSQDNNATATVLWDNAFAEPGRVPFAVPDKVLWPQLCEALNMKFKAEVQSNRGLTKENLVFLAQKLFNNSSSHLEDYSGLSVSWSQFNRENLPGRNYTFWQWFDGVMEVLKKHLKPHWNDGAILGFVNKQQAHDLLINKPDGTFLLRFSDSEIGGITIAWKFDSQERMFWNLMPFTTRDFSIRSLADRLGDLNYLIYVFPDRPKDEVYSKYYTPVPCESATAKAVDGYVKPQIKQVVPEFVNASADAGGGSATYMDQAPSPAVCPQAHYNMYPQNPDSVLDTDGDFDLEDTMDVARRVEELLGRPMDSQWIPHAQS
Nature of the experiment: Competitive fluorescence polarization (FP) assay, STAT5b. The note with it: for IC50: 59-85 nM STAT5b, 10 nM tracer peptide; for Ki: Ki calculated from IC50, mean ± SD, n = 3; for inhibition at 100 µM: compound at 100 µM. As for the experimental part:
as §1, §2, §3, §4, §5, §6

A further experiment deals with T3, STAT6 (Homo sapiens, UniProt P42226).
T3 sequence (P42226 1-847): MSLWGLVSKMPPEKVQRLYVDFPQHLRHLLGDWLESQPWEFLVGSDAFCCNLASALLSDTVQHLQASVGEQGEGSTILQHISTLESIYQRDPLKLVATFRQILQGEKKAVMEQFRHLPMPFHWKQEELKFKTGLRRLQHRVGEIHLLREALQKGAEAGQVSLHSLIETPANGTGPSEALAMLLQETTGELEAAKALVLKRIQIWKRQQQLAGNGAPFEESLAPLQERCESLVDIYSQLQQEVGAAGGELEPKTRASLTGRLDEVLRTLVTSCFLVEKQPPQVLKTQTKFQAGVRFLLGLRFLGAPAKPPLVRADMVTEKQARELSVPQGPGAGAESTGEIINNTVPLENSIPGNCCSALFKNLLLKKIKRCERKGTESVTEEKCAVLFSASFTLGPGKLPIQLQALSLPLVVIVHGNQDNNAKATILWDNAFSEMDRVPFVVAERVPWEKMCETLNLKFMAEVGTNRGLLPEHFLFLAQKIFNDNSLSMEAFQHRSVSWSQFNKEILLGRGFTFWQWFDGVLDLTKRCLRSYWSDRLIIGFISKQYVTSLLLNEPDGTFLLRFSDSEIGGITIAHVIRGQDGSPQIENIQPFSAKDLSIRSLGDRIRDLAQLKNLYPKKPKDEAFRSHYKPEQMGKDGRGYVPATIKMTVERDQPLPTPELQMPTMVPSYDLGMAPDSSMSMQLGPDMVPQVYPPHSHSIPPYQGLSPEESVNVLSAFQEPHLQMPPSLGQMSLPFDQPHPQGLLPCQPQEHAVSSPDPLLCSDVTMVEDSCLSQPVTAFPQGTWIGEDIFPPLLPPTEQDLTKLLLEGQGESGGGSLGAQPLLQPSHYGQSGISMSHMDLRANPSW
Description: Competitive fluorescence polarization (FP) assay, STAT6. The note with it: for IC50: 106 nM STAT6, 10 nM tracer peptide; for Ki: Ki calculated from IC50, mean ± SD, n = 3. On the procedure:
as §1, §2, §3, §4, §5, §6

As to `Cc1cc(-c2ccc(OP(=O)(O)O)c(F)c2)cs1` [8f], the IC50 at STAT1 is 9 µM; at STAT5b, 36 µM; at STAT6 it was 34 µM. Besides, the Ki at STAT1 is 4.4 ± 0.4 µM; at STAT5b, 18 ± 1 µM; on STAT6, 17 ± 2 µM.

Turning to `O=P(O)(O)Oc1ccc(-c2ccsc2)cc1` [8a], the concentration for half-maximal inhibition (IC50) at STAT1 amounted to 20.2 µM; at STAT5b, 47 µM; on STAT6 it was 15.8 µM. Besides, the Ki was 9.2 ± 1 µM at STAT1, 23 ± 1 µM on STAT5b and 7.8 ± 0.7 µM on STAT6.

Regarding `O=P(O)(O)Oc1ccc(-c2nccs2)cc1` [8c], at STAT1, the IC50 came out at 83 µM and the Ki is 38 ± 3 µM. This compound also came in with an inhibition at 100 µM on STAT5b of 26 ± 2%. The compound also came in with an inhibition at 200 µM at STAT5b (compound at 200 µM) of 45 ± 1%. For the same compound, at STAT6, the half-maximal inhibitory concentration (IC50) is 112 µM and the Ki was 55 ± 1 µM.

Take `O=P(O)(O)Oc1ccc2c(c1)oc1ccccc12` [compound 12]: on STAT1, the IC50 worked out at 34.3 µM and the Ki is 16 ± 1 µM. At STAT5b, this compound displayed an inhibition at 100 µM of 49 ± 1%. In addition, on STAT6, the IC50 amounted to 53 µM and the Ki is 26 ± 4 µM.

On to `O=P(O)(O)Oc1ccc2c(c1)Cc1ccccc1-2` [compound 11], for which the half-maximal inhibitory concentration (IC50) turned out to be 14.3 µM at STAT1, 101 µM at STAT5b and 23 µM at STAT6. Further, the Ki at STAT1 is 6.5 ± 0.2 µM; on STAT5b it was 49 ± 6 µM; at STAT6, 12 ± 1 µM.

As to `O=P(O)(O)Oc1ccc(-c2cccs2)cc1` [8b], the values for the IC50 at STAT1, on STAT5b and on STAT6 were 19.5 µM, 16.8 µM and 19 µM, respectively. The results for the Ki at STAT1, at STAT5b and on STAT6 were 8.9 ± 0.5 µM, 8.2 ± 0.4 µM and 9.4 ± 0.3 µM, respectively.
